# Experimental data published in PMC2409936, “Phase I and pharmacokinetic study of XR11576, an oral topoisomerase I and II inhibitor, administered on days 1–5 of a 3-weekly cycle in patients with advanced solid tumours” (British Journal of Cancer, 2004).
# Read-outs that look alike come from different tables or passages of the source.
# Assays:
# dogs = details: cited from earlier work
# advanced solid tumours = assay: Tumour evaluation according to RECIST; type: in vivo, human
# Protocol: Before treatment, a complete medical history was recorded and a physical examination performed. A complete blood count (CBC) including white blood cell differential and serum biochemistry, which involved sodium, potassium, calcium, urea, creatinine, uric acid, total protein, albumin, total bilirubin, alkaline phosphatase, γ-glutamyl transferase, aspartate aminotransferase, alanine aminotransferase, lactate dehydrogenase and glucose, were performed, as were urinalysis, pregnancy test, relevant tumour markers, electrocardiogram and a chest X-ray. The electrocardiogram was also performed 2 and 24 h after the first drug administration in the first and second cycles. Weekly evaluations included history, physical examination, toxicity assessment according to the CTC criteria version 2.0, and serum chemistries. Complete blood count was determined twice weekly. Tumour evaluation was performed after every two courses according to the Response Evaluation Criteria in Solid Tumours (RECIST) ([Therasse et al, 2000]). Patients were taken off protocol at the onset of disease progression.
# [1] = Urinary excretion in patients; type: in vivo, human; details: within 24 h after drug administration
# Protocol: (§1) All samples were centrifuged immediately after sampling at 3000 r.p.m. for 10 min at 4°C and the plasma was stored at −20°C or lower in polypropylene tubes in the dark until analysis. A total of four urine samples were also collected over a 24-h period; 0–4, 4–8, 8–12 and 12–24 h post-dosing on day 1 of the first cycle only. Of the total amount collected, a measured quantity of 10 ml was drawn off and stored at −80°C until analysis. Concentrations of XR11576 in plasma were determined according to a validated liquid chromatography-mass spectrometry detection method with liquid–liquid extraction at the Drug Metabolism and Pharmacokinetics Department of Quintiles Limited (Internal Report at Quintiles). The lower limit of quantitation was 5 ng ml^−1.
# The apparent terminal half-life (T1/2(z)) of XR11576 was calculated as ln 2/k, where k is the terminal elimination rate constant (expressed in h^−1). The peak plasma concentrations (Cmax) and the time to peak plasma concentration (Tmax) were determined from the experimental values. […] The total body clearance (CL) was calculated as the ratio between the administered dose and the AUC0–∞. The extent of accumulation (R0) in plasma was calculated from AUC0–24 h (days 4 or 5)/AUC0–24 h (day 1). The fraction of the administered dose (Fe) excreted in urine and the cumulative amount of XR11576 excreted in urine (Ae) was determined. […]
# [2] = Plasma pharmacokinetics in patients (LC-MS, noncompartmental analysis); type: in vivo, human; details: for AUC(0-inf) / AUC(0-t) / Cmax / Tmax / half-life: plasma, oral
# Protocol: For PK analysis, 58 blood samples (∼5 ml each) were obtained from an indwelling intravenous cannula and collected in vials containing lithium heparin as anticoagulant. The samples were taken immediately before dosing, 30 min and 1, 1.5, 2, 3, 4, 6, 8 and 10 h after administration of the drug on days 1 and 4 (or 5) of the first and second courses. Additional samples were taken immediately prior to dosing on days 2, 3, 4 and 5, and 24, 48, 72, 144 and 312 h after the dose administration on day 5, both in the first and second cycles. From the third cycle onwards, PK samples were taken prior to dosing on day 5 to measure the potential accumulation of XR11576.
# as §1
# The apparent terminal half-life (T1/2(z)) of XR11576 was calculated as ln 2/k, where k is the terminal elimination rate constant (expressed in h^−1). The peak plasma concentrations (Cmax) and the time to peak plasma concentration (Tmax) were determined from the experimental values. The areas under the plasma concentration–time curve (AUC) of XR11576 were estimated using the experimental values (trapezoidal rule) with extrapolation to infinity (AUC0–∞) using the apparent terminal rate constant, defined as the slope of the final three to four data points of the log-linear concentration–time plot. The total body clearance (CL) was calculated as the ratio between the administered dose and the AUC0–∞. The extent of accumulation (R0) in plasma was calculated from AUC0–24 h (days 4 or 5)/AUC0–24 h (day 1). The fraction of the administered dose (Fe) excreted in urine and the cumulative amount of XR11576 excreted in urine (Ae) was determined. PK data analysis was carried out using a noncompartmental analysis approach with the aid of WinNonlin Version Pron4.0.1 (Pharsight, Cary NC 27511).
# A nonlinear power model was used to assess dose proportionality separately for each day during cycles 1 and 2. Statistical analyses were performed using SAS version 8.1.
# [3] = system: human colon and small-cell lung cancer xenografts; set-up: method as in Mistry et al, 2002; Lewis et al, 2003; details: ref Mistry et al, 2002, Lewis et al, 2003; cited from earlier work
# [4] = system: murine and human tumour cell lines; set-up: method as in Mistry et al, 2002; Lewis et al, 2003; details: murine leukaemias and human colon, breast, ovarian and lung carcinoma cell lines; ref Mistry et al, 2002; Lewis et al, 2003; cited from earlier work
# rats = details: 14-day oral administration schedule; cited from earlier work
# [5] = mice; cited from earlier work
# [6] = dogs, cited from earlier work
# animals = details: in animals; cited from earlier work
# [7] = system: multidrug-resistant cells overexpressing P-gp or MRP, cells with downregulation of topoisomerase II levels; set-up: method as in Di Nicolantonio et al, 2002; details: cells overexpressing P-gp or MRP or with downregulated topoisomerase II; ref Di Nicolantonio et al, 2002; cited from earlier work
# [8] = set-up: method as in data on file, FPD 1055; details: ref data on file, FPD 1055; cited from earlier work
# [9] = human, 30 mg day^−1, first treatment course, mean, N=3
# [10] = human, 60 mg day^−1, first treatment course, mean, N=4
# [11] = human, 120 mg day^−1, first treatment course, mean, N=8
# [12] = human, 150 mg day^−1, first treatment course, mean, N=3
# [13] = human, 180 mg day^−1, first treatment course, mean, N=3
compound,measurement,setting,value
"COc1cccc2c1ccc1nc3cccc(C(=O)N[C@H](C)CN(C)C)c3nc12 [XR11576, 4-methoxy-benzo[a]phenazine-11-carboxylic acid (2-dimethulamino-1-R-methyl-ethyl)-amide]",maximum tolerated dose (MTD),dogs; 8/9-day oral administration schedule,200 mg m^−2
same,toxicities observed,dogs; i.v. doses repeatedly administered,myocarditis and nephritis
same,objective responses,advanced solid tumours; 21 assessable patients,No objective responses
same,"stable disease, median duration",advanced solid tumours; in vivo,12 weeks
same,"stable disease, range of duration",advanced solid tumours; in vivo,12–30 weeks
same,patients with stabilisation of disease,"advanced solid tumours; melanoma, cervical cancer and parotid cancer",Four patients
same,administered dose excreted unchanged in urine,[1],Less than 0.5%
same,R0 (ratio of accumulation),"[2]; 30 mg day^−1, first treatment course, mean, N=3",1.56
same,R0 (ratio of accumulation),"[2]; 60 mg day^−1, first treatment course, mean, N=4",1.87
same,R0 (ratio of accumulation),"[2]; 120 mg day^−1, first treatment course, mean, N=8",1.93
same,R0 (ratio of accumulation),"[2]; 150 mg day^−1, first treatment course, mean, N=3",1.53
same,R0 (ratio of accumulation),"[2]; 180 mg day^−1, first treatment course, mean, N=3",1.34
same,increase of systemic exposure with dose,[2]; 30–180 mg day^−1,greater than dose-proportional
same,time of maximum peak drug levels post dose,[2]; all patients,3.69 ± 0.79 h
same,accumulation in plasma: exposure higher by the last day of dosing,[2]; days 1–5 dosing,approximately two-fold
same,interpatient coefficients of variation in AUC values,"[2]; human, in vivo",> 100%
same,relationship between apparent CL/F and BSA,"[2]; human, in vivo",no relationship
same,AUC(0-inf),[2]; [9],50 ng·h/mL
same,AUC(0-t),[2]; [9],36.2 ng·h/mL
same,Cmax,[2]; [9],8.07 ng/mL
same,Tmax,[2]; [9],2.5 h
same,half-life,"[2]; human, 30 mg day^−1, first treatment course, mean, N=3, read-out: T1/2 (converted)",5.53 h
same,AUC(0-inf),[2]; [10],517 ng·h/mL
same,AUC(0-t),[2]; [10],178 ng·h/mL
same,Cmax,[2]; [10],21.7 ng/mL
same,Tmax,[2]; [10],3.5 h
same,half-life,"[2]; human, 60 mg day^−1, first treatment course, mean, N=4, read-out: T1/2 (converted)",68.8 h
same,AUC(0-inf),[2]; [11],535 ng·h/mL
same,AUC(0-t),[2]; [11],329 ng·h/mL
same,Cmax,[2]; [11],41.1 ng/mL
same,Tmax,[2]; [11],3.75 h
same,half-life,"[2]; human, 120 mg day^−1, first treatment course, mean, N=8, read-out: T1/2 (converted)",31.2 h
same,AUC(0-inf),[2]; [12],2240 ng·h/mL
same,AUC(0-t),[2]; [12],1710 ng·h/mL
same,Cmax,[2]; [12],167 ng/mL
same,Tmax,[2]; [12],4 h
same,AUC(0-inf),[2]; [13],1810 ng·h/mL
same,AUC(0-t),[2]; [13],970 ng·h/mL
same,Cmax,[2]; [13],112 ng/mL
same,Tmax,[2]; [13],4.67 h
same,half-life,"[2]; human, all dose levels, read-out: mean terminal half-life",≤ 70 h
same,activity against xenografts in vivo,[3],highly active
same,antitumour activity in vitro,[4],exerted antitumour activity
same,maximum tolerated dose (MTD),rats,150 mg m^−2
same,effect of food on bioavailability,[5],food reduced the bioavailability
same,oral availability,[5],72±25%
same,reduction in the systemic exposure,[6]; repeated daily oral doses,approximately 60%
same,increase of systemic exposure with dose,[6]; single oral administration,more than dose-proportionally
same,predominantly induced toxicity,animals,bone marrow and gastrointestinal toxicity
same,activity against resistant cells,[7],active
same,cardiac toxicity,[8],no cardiac toxicity was detected
